Experiments:
[1] = test system: IL-6; assay: Inhibition of IL-6 release from J774A.1 macrophages stimulated by LPS (ELISA); format: cell-based; conditions: 10 μM compound pretreatment 2 h, then 0.5 μg/mL LPS 22 h, LPS control = 100, FIG. 1
Method: (§1) The present invention tested the dose-effect relationship of some of the compounds of Examples in inhibiting the release of IL-6 and TNF-α from J774A.1 macrophages stimulated by LPS. The specific method is as follows: 1.2×10^6 […] macrophages were cultured by DMEM culture solution at 37° C., the culture solution was renewed after 24 h, the tested example compound (at a final concentration of 10 μM) was added for pretreatment for 2 h and then continuously treated by 0.5 μg/mL of LPS for 22 h, the culture solution was collected, and the content of IL-6 and TNF-α was detected by ELISA method. The total protein concentration was measured by collecting cells, the ELISA results were divided by the corresponding total protein concentration and calibrated by the IL-6 and TNF-α content of LPS control group as 100, and the average and error values were calculated.

[2] = test system: TNF-α; assay: Inhibition of TNF-α release from J774A.1 macrophages stimulated by LPS (ELISA); format: cell-based; conditions: 10 μM compound pretreatment 2 h, then 0.5 μg/mL LPS 22 h, LPS control = 100, FIG. 2
Method: as §1

SMILES	inhibitory effect on the release of IL-6 [1]	inhibitory effect on the release of TNF-α [2]
FC(F)(F)c1ccccc1/C=C1\CCC/C(=C\c2ccccc2C(F)(F)F)C1=NOCc1c(Cl)cccc1Cl [Example 20, 2,6-(E,E)-(2-(trifluoromethyl)benzylidene)cyclohexan-1-one-2,6-dichlorobenzyl oxime]	significant inhibitory effect	–
Oc1ccc(/C=C2\CCC/C(=C\c3ccc(O)cc3)C2=NOCC2CCCC2)cc1 [Example 37, 2,6-(E,E)-(4-(hydroxy)benzylidene)cyclohexan-1-one cyclopentylmethyl oxime]	significant inhibitory effect	significant inhibitory effect
FC(F)(F)c1ccccc1/C=C1\CCC/C(=C\c2ccccc2C(F)(F)F)C1=NOCC1CCCC1 [Example 13, 2,6-(E,E)-(2-(trifluoromethyl)benzylidene)cyclohexan-1-one cyclopentylmethyl oxime]	significant inhibitory effect	–
COCCON=C1/C(=C/c2ccc(OC)cc2)CCC/C1=C\c1ccc(OC)cc1 [Example 35, 2,6-(E,E)-(4-(methoxy)benzylidene)cyclohexan-1-one-(2-methoxyethyl)oxime]	significant inhibitory effect	significant inhibitory effect
FC(F)(F)c1ccccc1/C=C1\CCC/C(=C\c2ccccc2C(F)(F)F)C1=NOCC1CCOCC1 [Example 28, 2,6-(E,E)-(2-(trifluoromethyl)benzylidene)cyclohexan-1-one-(tetrahydro-2H-pyran-4-yl) methyl oxime]	significant inhibitory effect	significant inhibitory effect
FC(F)(F)c1ccccc1/C=C1\CCC/C(=C\c2ccccc2C(F)(F)F)C1=NOCC1OCCO1 [Example 27, 2,6-(E,E)-(2-(trifluoromethyl)benzylidene)cyclohexan-1-one-((1,3-dioxolan-2-yl)methyl)oxime]	significant inhibitory effect	significant inhibitory effect
FC(F)(F)c1ccccc1/C=C1\CCC/C(=C\c2ccccc2C(F)(F)F)C1=NOCC1CCCO1 (stereo not shown) [Example 26, 2,6-(E,E)-(2-(trifluoromethyl)benzylidene)cyclohexan-1-one-((tetrahydrofuran-2-yl)methyl)oxime]	–	significant inhibitory effect
CC(C)ON=C1/C(=C/c2ccccc2C(F)(F)F)CCC/C1=C\c1ccccc1C(F)(F)F [Example 10, 2,6-(E,E)-(2-(trifluoromethyl)benzylidene)cyclohexan-1-one isopropyl oxime]	significant inhibitory effect	–
Clc1ccc(/C=C2\CCC/C(=C\c3ccc(Cl)c(Cl)c3)C2=NOCCN2CCOCC2)cc1Cl [Example 39, 2,6-(E,E)-(3,4-(dichloro)benzylidene)cyclohexan-1-one-2-(morpholinoethyl)oxime]	significant inhibitory effect	significant inhibitory effect
COc1cccc(CON=C2/C(=C/c3ccccc3C(F)(F)F)CCC/C2=C\c2ccccc2C(F)(F)F)c1 [Example 16, 2,6-(E,E)-(2-(trifluoromethyl)benzylidene)cyclohexan-1-one-3-methoxybenzyl oxime]	significant inhibitory effect	–
CN1CCN(CCCON=C2/C(=C/c3ccccc3C(F)(F)F)CCC/C2=C\c2ccccc2C(F)(F)F)CC1 [Example 30, 2,6-(E,E)-(2-(trifluoromethyl)benzylidene)cyclohexan-1-one-(3-(4-methylpiperazin-1-yl)propyl)oxime]	significant inhibitory effect	–
FC(F)(F)c1ccccc1/C=C1\CCC/C(=C\c2ccccc2C(F)(F)F)C1=NOCCC1OCCO1 [Example 29]	–	significant inhibitory effect
FC(F)(F)c1ccccc1/C=C1\CCC/C(=C\c2ccccc2C(F)(F)F)C1=NOCCCN1CCCC1 [Example 6, 2,6-(E,E)-(2-(trifluoromethyl)benzylidene)cyclohexan-1-one-3-(pyrrolidin-1-yl)propyl oxime]	significant inhibitory effect	–
FC(F)(F)c1ccccc1/C=C1\CCC/C(=C\c2ccccc2C(F)(F)F)C1=NOCCN1CCOCC1 [Example 7, 2,6-(E,E)-(2-(trifluoromethyl)benzylidene)cyclohexan-1-one-2-(morpholinoethyl)oxime]	significant inhibitory effect	significant inhibitory effect
Fc1ccc(CCON=C2/C(=C/c3ccccc3C(F)(F)F)CCC/C2=C\c2ccccc2C(F)(F)F)cc1 [Example 25, 2,6-(E,E)-(2-(trifluoromethyl)benzylidene)cyclohexan-1-one-4-(fluorophenethyl)oxime]	significant inhibitory effect	significant inhibitory effect
Fc1cccc(CCON=C2/C(=C/c3ccccc3C(F)(F)F)CCC/C2=C\c2ccccc2C(F)(F)F)c1 [Example 24, 2,6-(E,E)-(2-(trifluoromethyl)benzylidene)cyclohexan-1-one-3-(fluorophenethyl)oxime]	–	significant inhibitory effect
Fc1ccc(CON=C2/C(=C/c3ccccc3C(F)(F)F)CCC/C2=C\c2ccccc2C(F)(F)F)cc1 [Example 19, 2,6-(E,E)-(2-(trifluoromethyl)benzylidene)cyclohexan-1-one-4-fluorobenzyl oxime]	–	significant inhibitory effect
Cc1cccc(CCON=C2/C(=C/c3ccccc3C(F)(F)F)CCC/C2=C\c2ccccc2C(F)(F)F)c1 [Example 22, 2,6-(E,E)-(2-(trifluoromethyl)benzylidene)cyclohexan-1-one-3-(methylphenylethyl)oxime]	–	significant inhibitory effect
FC(F)(F)c1ccccc1/C=C1\CCC/C(=C\c2ccccc2C(F)(F)F)C1=NOCCN1CCCC1 [Example 5]	significant inhibitory effect	–
CC(C)ON=C1/C(=C/c2ccccc2F)CCC/C1=C\c1ccccc1F [Example 33, 2,6-(E,E)-(2-(fluoro)benzylidene)cyclohexan-1-one isopropyl oxime]	significant inhibitory effect	significant inhibitory effect
Fc1cccc(CON=C2/C(=C/c3ccccc3C(F)(F)F)CCC/C2=C\c2ccccc2C(F)(F)F)c1 [Example 18, 2,6-(E,E)-(2-(trifluoromethyl)benzylidene)cyclohexan-1-one-3-fluorobenzyl oxime]	significant inhibitory effect	–
CCCON=C1/C(=C/c2ccccc2)CCC/C1=C\c1ccccc1 [Example 32, 2,6-(E,E)-(benzylidene)cyclohexan-1-one propyl oxime]	significant inhibitory effect	significant inhibitory effect

From patent US20250353812A1, “2,6-DIBENZYLIDENECYCLOHEXANONE OXIME COMPOUND AND PREPARATION METHOD THEREFOR AND USE THEREOF” (WENZHOU MEDICAL UNIVERSITY, priority 2022, published 2025)
